This is an account of results in patent US10294228B2, “Breathing control modulating compounds, and methods of making and using same” (NEURAD LTD., priority 2015, dated 2019).

Structures can show the parent of a compound that is named as a salt.

This assay has as its system anesthetized rats. Nature of the assay: Anesthetized rat spirometry screening assay (ventilatory activity, minute volume). In kind it is in vivo. The note with it: increase in minute volume (VE); for change in vivo at 0.3 mg/kg: 0.3 mg/kg IV bolus, read-out: VE % Inc @ 0.3 mg/kg IV; for change in vivo at 3 mg/kg: 3.0 mg/kg IV bolus, read-out: VE % Inc @ 3.0 mg/kg IV. The protocol: Anesthetized rats provide a quick method of screening compounds for respiratory and cardiovascular activity.
Rats were initially anesthetized with 3% isoflurane (inhaled) and femoral artery and vein cannulas were surgically inserted. Once cannulated, the rats were transitioned to urethane anesthesia (1.5 g/kg; i.v.) and a tracheal cut-down was performed. After placing the tracheal cannula, it was connected to a pneumotachometer to record respiratory airflow from which respiratory rate (RR), tidal volume (VT), and their product minute volume (MV, also termed VE) were derived. After the surgical preparation was complete, animals were allowed to stabilize for 30 minutes while respiratory rate, tidal volume, minute volume, blood pressure and heart rate were recorded continuously. Arterial blood gases (ABG) were obtained from arterial blood collected from the femoral artery. ABG measurements were taken before and 6 minutes after vehicle and each dose of compound administered. Compounds being screened were administered via bolus injections through the venous cannula followed by a saline flush (total time of administration is approximately 30 seconds), and the animal was monitored for at least 6 minutes for changes in cardiovascular efforts. Compounds were prepared in formulations identified to ensure optimal solubility. As such, vehicle controls were matched for the formulation of each compound tested. Dosing of the compounds being screened was conducted at 0.1 and/or 0.3 mg/kg and/or 3 mg/kg The next dose was not administered until all cardiovascular and respiratory measures had returned to baseline levels. The positive control compounds used were N-[4,6-di-(n-propylamino)-[1,3,5]triazin-2-yl]-N,O-dimethyl-hydroxylamine or N-[2,6-di-(n-propylamino)-[1,3]pyrimidin-4-yl]-N,O-dimethyl-hydroxylamine (both administered at the end of each screening experiment (0.3 mg/kg dose) to validate the experiment and also to serve as a measure with which the compound being screened could be compared.
Data were analyzed by collecting cardiovascular and respiratory data in 30 second averages (BINs). Data were plotted 2 minutes before challenge and then 6 minutes after challenge.

Consider `CCCNc1nc(NCC(F)F)nc2c(NCC(C)(C)O)nc(NCC(F)F)nc12` [Compound 33a, 1-[2,6-Bis-(2,2-difluoro-ethylamino)-8-propylamino-pyrimido[5,4-d]-pyrimidin-4-ylamino]-2-methyl-propan-2-ol Hydrochloride], for which the change in vivo at 0.3 mg/kg is 23% and the change in vivo at 3 mg/kg was determined as 115%.
For the compound `CCCNc1nc(NCC(F)(F)F)nc2c(NCC(C)(C)O)nc(NCC(F)(F)F)nc12` [Compound 34a, 2-Methyl-1-[8-propylamino-2,6-bis-(2,2,2-trifluoro-ethylamino)-pyrimido[5,4-d]pyrimidin-4-ylamino]-propan-2-ol Hydrochloride], the change in vivo at 0.3 mg/kg was 2%.
Take `C=CCNc1nc(NC)c2nc(NCCO)nc(NC)c2n1` [Compound 154, 2-(6-Allylamino-4,8-bis-methylamino-pyrimido[5,4-d]pyrimidin-2-ylamino)-ethanol]: the change in vivo at 0.3 mg/kg was 40% and the change in vivo at 3 mg/kg is 103%.
The matching figures for `C=CCNc1nc(NC)c2nc(NC[C@@H](C)O)nc(NC)c2n1` [Compound 145, (R)-1-(6-Allylamino-4,8-bis-methylamino-pyrimido[5,4-d]pyrimidin-2-ylamino)-propan-2-ol]: 47% and 156%.
For `CCCNc1nc(NC)c2nc(N[C@H]3CCCC[C@@H]3O)nc(NC)c2n1` [Compound 133, (1S,2S)-2-(4,8-Bis-methylamino-6-propylamino-pyrimido[5,4-d]pyrimidin-2-ylamino)-cyclohexanol], the change in vivo at 0.3 mg/kg amounted to 35% and the change in vivo at 3 mg/kg was 111%.
For `CCCNc1nc(NC)nc2c(NC[C@@H](C)O)nc(NC)nc12` [Compound 14a, (R)-1-(2,6-Bis-methylamino-8-propylamino-pyrimido[5,4-d]pyrimidin-4-ylamino)-propan-2-ol Hydrochloride], the change in vivo at 0.3 mg/kg was 88%.
In the case of `CCCNc1nc(NC)c2nc(N[C@H]3CCCC[C@H]3O)nc(NC)c2n1` [Compound 131, (1R,2S)-2-(4,8-Bis-methylamino-6-propylamino-pyrimido[5,4-d]pyrimidin-2-ylamino)-cyclohexanol], the change in vivo at 0.3 mg/kg came out at 18% and the change in vivo at 3 mg/kg came out at 142%.
For the compound `C=C(C)CNc1nc(NC)c2nc(NC[C@H](C)O)nc(NC)c2n1` [Compound 159, (S)-1-[6-(2-Methyl-allylamino)-4,8-bis-methylamino-pyrimido[5,4-d]-pyrimidin-2-ylamino]-propan-2-ol], the change in vivo at 0.3 mg/kg turned out to be 61% and the change in vivo at 3 mg/kg worked out at 160%.
The matching figures for `CCCNc1nc(NC)c2nc(NCC(O)CC)nc(NC)c2n1` (stereo not drawn) [Compound 117, 1-(4,8-Bis-methylamino-6-propylamino-pyrimido[5,4-d]pyrimidin-2-ylamino)-butan-2-ol]: 150% and 162%.
The matching figures for `CCCNc1nc(NCC)c2nc(NC[C@H](C)O)nc(NCC)c2n1` [Compound 166, (S)-1-(4,8-Bis-ethylamino-6-propylamino-pyrimido[5,4-d]-pyrimidin-2-ylamino)-propan-2-ol]: 88% and 91%.
For `CCCNc1nc(NC)c2nc(NC(C)C(C)O)nc(NC)c2n1` (stereo not drawn) [Compound 119, 3-(4,8-Bis-methylamino-6-propylamino-pyrimido[5,4-d]pyrimidin-2-ylamino)-butan-2-ol], the change in vivo at 0.3 mg/kg stood at 10% and the change in vivo at 3 mg/kg came to 151%.
`C=CCNc1nc(NC)c2nc(N(C)C[C@H](C)O)nc(NC)c2n1` [Compound 156, (S)-1-[(6-Allylamino-4,8-bis-methylamino-pyrimido[5,4-d]pyrimidin-2-yl)-methyl-amino]-propan-2-ol]: the change in vivo at 0.3 mg/kg amounted to 16% and the change in vivo at 3 mg/kg turned out to be 97%.
On to `CCCNc1nc(NC)c2nc(N[C@@H]3CCCC[C@H]3O)nc(NC)c2n1` [Compound 137, (1R,2R)-2-(4,8-Bis-methylamino-6-propylamino-pyrimido[5,4-d]pyrimidin-2-ylamino)-cyclohexanol], for which the change in vivo at 0.3 mg/kg is 22% and the change in vivo at 3 mg/kg was 103%.
Take `CCCNc1nc(NC)c2nc(NCC(O)C(F)(F)F)nc(NC)c2n1` (stereo not drawn) [Compound 111, 3-(4,8-Bis-methylamino-6-propylamino-pyrimido[5,4-d]pyrimidin-2-ylamino)-1,1,1-trifluoro-propan-2-ol]: the change in vivo at 0.3 mg/kg stood at 18% and the change in vivo at 3 mg/kg is 105%.
The matching figures for `CCCNc1nc(NC)nc2c(N[C@@H]3c4ccccc4C[C@H]3O)nc(NC)nc12` [Compound 80, (1R,2R)-1-(2,6-Bis-methylamino-8-propylamino-pyrimido[5,4-d]-pyrimidin-4-ylamino)-indan-2-ol]: 71% and 95%.
Take `CCCNc1nc(NC)nc2c(N[C@H]3CCC[C@@H]3O)nc(NC)nc12` [Compound 86, (1S,2S)-2-(2,6-Bis-methylamino-8-propylamino-pyrimido[5,4-d]pyrimidin-4-ylamino)-cyclopentanol]: the change in vivo at 0.3 mg/kg was 26% and the change in vivo at 3 mg/kg is 92%.
The matching figures for `CCCNc1nc(NC)nc2c(NC(C)C(C)O)nc(NC)nc12` (stereo not drawn) [Compound 26a, 3-(2,6-Bis-methylamino-8-propylamino-pyrimido[5,4-d]pyrimidin-4-ylamino)-butan-2-ol Hydrochloride]: 39% and 143%.
Turning to `CNc1nc(N(C)C)nc2c(NC)nc(NCCO)nc12` [Compound 92, 2-(6-Dimethylamino-4,8-bis-methylamino-pyrimido[5,4-d]-pyrimidin-2-ylamino)-ethanol], the change in vivo at 0.3 mg/kg was 49% and the change in vivo at 3 mg/kg worked out at 148%.
With `CCCNc1nc(NC)nc2c(NC(C)(C)CO)nc(NC)nc12` [Compound 16a, 2-(2,6-Bis-methylamino-8-propylamino-pyrimido[5,4-d]-pyrimidin-4-ylamino)-2-methyl-propan-1-ol hydrochloride], the change in vivo at 0.3 mg/kg is 80%.
For `CCCNc1nc(NC)nc2c(NCC(O)CO)nc(NC)nc12` (stereo not drawn) [Compound 75a, 3-(2,6-Bis-methylamino-8-propylamino-pyrimido[5,4-d]pyrimidin-4-ylamino)-propane-1,2-diol Hydrochloride], the change in vivo at 0.3 mg/kg stood at 158% and the change in vivo at 3 mg/kg is 180%.
The matching figures for `CCNc1nc(NCC)c2nc(NC[C@@H](C)O)nc(NCC)c2n1` [Compound 186, (R)-1-(4,6,8-Tris-ethylamino-pyrimido[5,4-d]pyrimidin-2-ylamino)-propan-2-ol]: 37% and 90%.
Turning to `CCCNc1nc(NC)c2nc(N[C@H]3c4ccccc4C[C@H]3O)nc(NC)c2n1` [Compound 127, (1S,2R)-1-(4,8-Bis-methylamino-6-propylamino-pyrimido[5,4-d]-pyrimidin-2-ylamino)-indan-2-ol], the change in vivo at 0.3 mg/kg turned out to be 81% and the change in vivo at 3 mg/kg worked out at 108%.
With `CCCNc1nc(NC)nc2c(NCCCO)nc(NC)nc12` [Compound 8a, 3-(2,6-Bis-methylamino-8-propylamino-pyrimido[5,4-d]pyrimidin-4-ylamino)-propan-1-ol hydrochloride], the change in vivo at 0.3 mg/kg amounted to 31%.
As to `C=C(C)CNc1nc(NCC)c2nc(NC[C@H](C)O)nc(NCC)c2n1` [Compound 175, (S)-1-[4,8-Bis-ethylamino-6-(2-methyl-allylamino)-pyrimido[5,4-d]-pyrimidin-2-ylamino]-propan-2-ol], the change in vivo at 0.3 mg/kg stood at 75% and the change in vivo at 3 mg/kg came to 134%.
Take `CCCNc1nc(NC)nc2c(N(C)CCO)nc(NC)nc12` [Compound 6a, 2-[(2,6-Bis-methylamino-8-propylamino-pyrimido[5,4-d]pyrimidin-4-yl)-methyl-amino]-ethanol hydrochloride]: the change in vivo at 0.3 mg/kg amounted to 37%.
As for `CCCNc1nc(NC)nc2c(NC3Cc4ccccc4C3O)nc(NC)nc12` (racemic) [Compound 81, 2-(2,6-Bis-methylamino-8-propylamino-pyrimido[5,4-d]-pyrimidin-4-ylamino)-indan-1-ol], the change in vivo at 0.3 mg/kg is 50% and the change in vivo at 3 mg/kg worked out at 72%.
The matching figures for `CNc1nc(NC[C@H](C)O)nc2c(NC)nc(NCC3CC3)nc12` [Compound 142, (S)-1-[6-(Cyclopropylmethyl-amino)-4,8-bis-methylamino-pyrimido[5,4-d]pyrimidin-2-ylamino]-propan-2-ol]: 2% and 62%.
The matching figures for `CC[C@H](C)Nc1nc(NC)c2nc(NC[C@H](C)O)nc(NC)c2n1` [Compound 105, (S)-1-[6-((S)-sec-Butylamino)-4,8-bis-methylamino-pyrimido[5,4-d]pyrimidin-2-ylamino]-propan-2-ol]: 14% and 120%.
